Assay results from US20230219951A1, “PYRIDINE-PYRIMIDINE DERIVATIVE, PREPARATION METHOD THEREFOR AND PHARMACEUTICAL USE THEREOF” (Jiangsu Hengrui Pharmaceuticals Co., Ltd., priority 2020, published 2023).

Key:
[1] = test system: ERK phosphorylation of H358 cells; experiment: Inhibition of ERK phosphorylation of H358 cells (HTRF pERK/total ERK); format: cell-based; settings: Homo sapiens, NCI-H358, 1 h incubation, pERK/total ERK ratio
Description: This experiment is intended to evaluate the inhibition effect of the compounds of the present disclosure on the KRAS target (containing the G12C mutation) according to IC50 by determining the inhibition effect of the compounds on ERK phosphorylation of the cells.
H358 cells (ATCC, CRL-5807) were cultured in RPMI1640 (Hyclone, SH30809.01) complete medium containing 10% fetal bovine serum. On the first day of the experiment, the H358 cells were seeded into a 96-well plate at a density of 25,000 cells/well with a complete medium to form 190 μL of cell suspension per well. The plate was incubated overnight in a cell incubator at 37° C. with 5% CO2. The next day, 10 μL of test compound diluted in a gradient prepared with the complete medium was added to each well. The final concentrations of the compound were 9 concentration points obtained by 5-fold gradient dilution from 10 μM. A blank control containing 0.1% DMSO was set. The plate was incubated in a cell incubator at 37° C. with 5% CO2 for 1 h. 1 h later, the 96-well cell culture plate was taken out, the medium was removed by pipetting, 200 μL PBS (Shanghai BasalMedia Technologies Co., Ltd., B320) was added to each well, and the cells were washed once. PBS was removed by pipetting, 50 μL of lysis buffer (Cisbio, 64KL1FDF) containing a blocking reagent (Cisbio, 64KB1AAC) was added to each well, and the plate was shaken on a shaker at room temperature for 40 min for lysis. After lysis, the lysate was pipetted and mixed well, 16 μL of lysate was transferred from each well to each of two HTRF 96-well assay plates (Cisbio, 66PL96100), and then 4 μL of premixed phospho-ERK1/2 antibody solution (Cisbio, 64AERPEG) or 4 μL of premixed total-ERK1/2 antibody solution (Cisbio, 64NRKPEG) was added to each of the two plates. The microplate was sealed with a sealing membrane, centrifuged for 1 min in a microplate centrifuge, and incubated overnight at room temperature away from the light. On the third day, the fluorescence values at an excitation wavelength of 337 nm and at emission wavelengths of 665 nm and 620 nm were read using a PHERAstar multi-mode microplate reader (BMG Labtech, S/N 471-0361).
IC50 values for inhibitory activity of the compounds were calculated using Graphpad Prism software based on compound concentrations and pERK/total ERK ratio.

H358 cells = experiment: Inhibition of proliferation of H358 cells (CellTiter-Glo 3D); format: cell-based; settings: Homo sapiens, NCI-H358, low adsorption plate, 120 h
Description: This example is intended to evaluate the inhibition effect of the compounds of the present disclosure on the KRAS target (containing the G12C mutation) by testing the inhibition effect of the compounds of the present disclosure on the proliferation of H358 cells.
H358 cells (ATCC, CRL-5807) were cultured in a complete medium, namely RPMI1640 medium (Hyclone, SH30809.01) containing 10% fetal bovine serum (Corning, 35-076-CV). On the first day of the experiment, the H358 cells were seeded into a 96-well low adsorption plate (Coming, CLS7007-24EA) at a density of 1500 cells/well with a complete medium to form 90 μL of cell suspension per well. The plate was centrifuged at 2000 rpm for 5 min at room temperature and then incubated overnight in a cell incubator at 37° C. with 5% CO2. The next day, 10 μL of test compound diluted in a gradient prepared with the complete medium was added to each well. The final concentrations of the compound were 9 concentration points obtained by 5-fold gradient dilution from 10 μM. A blank control containing 0.1% DMSO was set. The plate was incubated in a cell incubator at 37° C. with 5% CO2 for 120 h. On the seventh day, the 96-well cell culture plate was taken out and 50 μL of CellTiter-Glo® 3D reagent (Promega, G9682) was added into each well. The plate was shaken at room temperature for 25 min, pipetted and mixed well, from which 50 μL of the mixture was transferred into a white impermeable 96-well plate (PE, 6005290). The luminescence signal values were read using a multi-mode microplate reader (PerkinElmer, VICTOR 3).
IC50 values for the inhibitory activity of the compounds were calculated using Graphpad Prism software.

[2] = target: T1, interaction between the KRAS protein subtype G12D and the SOS1 protein (Homo sapiens, UniProt Q07889); experiment: Inhibition of the interaction between KRAS G12D and SOS1 protein (AlphaLISA/AlphaScreen); format: binding; settings: KRAS G12D + GST-TEV-SOS1(564-1049) + GDP
T1 construct: GST-TEV-SOS1(564-1049) (Viva Biotech, SOS1-191010); purchased SOS1: Viva Biotech; KRAS: Shanghai Panchao Biotechnology Co., Ltd. SOS1-191010
T1 sequence (Q07889 564-1049): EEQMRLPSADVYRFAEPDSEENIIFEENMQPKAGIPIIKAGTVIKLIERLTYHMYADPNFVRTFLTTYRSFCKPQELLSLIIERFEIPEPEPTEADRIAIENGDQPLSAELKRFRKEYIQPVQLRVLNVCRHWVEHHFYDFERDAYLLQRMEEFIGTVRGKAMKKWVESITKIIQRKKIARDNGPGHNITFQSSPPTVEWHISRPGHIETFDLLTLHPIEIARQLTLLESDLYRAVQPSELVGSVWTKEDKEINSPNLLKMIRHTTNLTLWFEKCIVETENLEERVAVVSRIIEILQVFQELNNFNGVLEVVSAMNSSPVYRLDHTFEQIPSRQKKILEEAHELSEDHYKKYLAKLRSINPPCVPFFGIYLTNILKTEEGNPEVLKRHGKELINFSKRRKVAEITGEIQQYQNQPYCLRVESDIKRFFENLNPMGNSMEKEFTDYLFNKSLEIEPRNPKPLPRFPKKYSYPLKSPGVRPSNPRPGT
Description: (§1) Test Example 1: Inhibitory Ability of Compounds of the Present Disclosure to the Interaction Between the KRAS Protein Subtype G12D or G12V and the SOS1 Protein. The inhibitory ability of the compounds of the present disclosure to the interaction between the KRAS protein subtype G12D or G12V and the SOS1 protein was determined by the following method. The experimental method was briefly described as follows:
(§2) 1. The experimental buffer was prepared prior to the start of the experiment: 1×PBS+0.1% BSA+0.05% tween 20.
(§3) 2. KRAS G12D and KRAS-G12V proteins were labeled with biotin using the biotin labeling kit.
(§4) 1. Firstly, the biotin-labeled KRAS G12D or KRAS G12V protein was mixed and incubated with the SOS1 protein and GDP for later use.
(§5) 2. AlphaLISA glutathione acceptor beads and AlphaScreen streptavidin donor beads were mixed at a ratio of 1:1 to make the concentration of 40 μg/mL for later use.
(§6) 3. The compound was formulated with the experimental buffer to obtain 10 concentration points by 5-fold gradient dilution from an initial concentration of 40 μM.
(§7) 4. In the 384-well microplate, 10 μL of a mixture of KRAS G12D or KRAS G12V protein and SOS1 and GDP and 5 μL of the diluted compound were added to each well and incubated at room temperature for 30 min away from the light.
(§8) 5. Then, 5 μL of a mixture of AlphaLISA glutathione acceptor beads and AlphaScreen streptavidin donor beads was added to each well and incubated at room temperature for 60 min away from the light.
(§9) 6. The fluorescence values were read on a multi-mode microplate reader.
(§10) 7. IC50 values of the compounds were calculated using Graphpad Prism.

[3] = target: T2, interaction between the KRAS protein subtype G12V and the SOS1 protein (Homo sapiens, UniProt Q07889); experiment: Inhibition of the interaction between KRAS G12V and SOS1 protein (AlphaLISA/AlphaScreen); format: binding; settings: KRAS G12V + GST-TEV-SOS1(564-1049) + GDP
T2 construct: GST-TEV-SOS1(564-1049) (Viva Biotech, SOS1-191010); purchased SOS1: Viva Biotech; KRAS: Shanghai Panchao Biotechnology Co., Ltd. SOS1-191010
T2 sequence (Q07889 564-1049): T1 sequence (Q07889 564-1049)
Description: as §1, §2, §3, §4, §5, §6, §7, §8, §9, §10

IC50 (H358 cells): 55 nM | IC50 [2]: 14 nM | IC50 [3]: 50 nM
SMILES: CC(=O)N1CCC(O)(c2cc3c(N[C@H](C)c4cccc(C(F)F)c4F)nc(C)nc3[nH]c2=O)CC1 [Example 12, (R)-6-(1-acetyl-4-hydroxypiperidin-4-yl)-4-((1-(3-(difluoromethyl)-2-fluorophenyl)ethyl)amino)-2-methylpyrido[2,3-d]pyrimidin-7(8H)-one]
IC50 [1]: 48 nM
